Experimental findings from PMC4457528, “Identification of Novel Small Molecule Inhibitors of Oncogenic RET Kinase” (PLoS ONE, 2015) are described below.

The test system of one assay is Ba/F3-RET/PTC3 cells. The assay is described as follows: Growth curves, Ba/F3 cells expressing RET/PTC3. The settings on record: Ba/F3 RET/PTC3, without IL-3.
Assay [1] has as its target T1, KinomeScan kinase panel (Homo sapiens, UniProt Q9NYY3).
T1 construct: purchased DiscoveRx (KinomeScan)
The assay is described as follows: KinomeScan kinase panel, single concentration 10 µM. It counts as binding.

Assay [2] addresses T2, KinomeScan kinase panel (Homo sapiens, UniProt Q15208).
T2 construct: purchased DiscoveRx (KinomeScan)
The assay is described as above. It is filed as binding. The conditions noted are these: NDR1, 10 µM; read-out: score (%).

The target in assay [3] is T3, KinomeScan kinase panel (Homo sapiens, UniProt P42336, H1047L).
T3 construct: purchased DiscoveRx (KinomeScan)
The assay is described as above. It counts as binding. The conditions noted are these: PIK3CA(H1047L), 10 µM; read-out: score (%).

Assay [4] deals with T4, KinomeScan kinase panel (Homo sapiens, UniProt Q9UBF8).
T4 construct: purchased DiscoveRx (KinomeScan)
The description is as above. It counts as binding. The conditions noted are these: PIK4CB, 10 µM; read-out: score (%).

Assay [5] concerns the target T5, KinomeScan kinase panel (Homo sapiens, UniProt P42336, M1043I).
T5 construct: purchased DiscoveRx (KinomeScan)
The description is as above. It is filed as binding. The settings on record: PIK3CA(M1043I), 10 µM; read-out: score (%).

The target of assay [6] is T6, KinomeScan kinase panel (Homo sapiens, UniProt Q9NRH2).
T6 construct: purchased DiscoveRx (KinomeScan)
The description is as above. It is filed as binding. The settings on record: kinase SNRK; 10 µM; read-out: score (%).

The target in assay [7] is T7, KinomeScan kinase panel (Homo sapiens, UniProt P10721, A829P).
T7 construct: purchased DiscoveRx (KinomeScan)
The assay is described as above. It counts as binding. The conditions noted are these: KIT(A829P), 10 µM; read-out: score (%).

In assay [8] the target is T8, KinomeScan kinase panel (Homo sapiens, UniProt P41743).
T8 construct: purchased DiscoveRx (KinomeScan)
The assay is described as above. It is filed as binding. The settings on record: kinase PRKCI; 10 µM; read-out: score (%).

Assay [9] concerns the target T9, KinomeScan kinase panel (Homo sapiens, UniProt Q96BR1).
T9 construct: purchased DiscoveRx (KinomeScan)
The assay is described as above. It is filed as binding. The settings on record: kinase SGK3; 10 µM; read-out: score (%).

Assay [10] deals with T10, KinomeScan kinase panel (Homo sapiens, UniProt P51957).
T10 construct: purchased DiscoveRx (KinomeScan)
The description is as above. It is filed as binding. The conditions noted are these: NEK4, 10 µM; read-out: score (%).

Assay [11] addresses T11, KinomeScan kinase panel (Homo sapiens, UniProt P10721, D816H).
T11 construct: purchased DiscoveRx (KinomeScan)
The description is as above. It counts as binding. The settings on record: KIT(D816H), 10 µM; read-out: score (%).

In assay [12] the target is T12, KinomeScan kinase panel (Homo sapiens, UniProt P36888, R834Q).
T12 construct: purchased DiscoveRx (KinomeScan)
The description is as above. It counts as binding. The settings on record: FLT3(R834Q), 10 µM; read-out: score (%).

The target in assay [13] is T13, KinomeScan kinase panel (Homo sapiens, UniProt Q6XUX3).
T13 construct: purchased DiscoveRx (KinomeScan)
The assay is described as above. The conditions noted are these: kinase RIPK5; 10 µM; read-out: score (%). It is filed as binding.

In assay [14] the target is T14, KinomeScan kinase panel (Homo sapiens, UniProt P00533, T790M).
T14 construct: purchased DiscoveRx (KinomeScan)
Described as above. The settings on record: EGFR(T790M), 10 µM. It is filed as binding.

In assay [15] the target is T15, KinomeScan kinase panel (Homo sapiens, UniProt Q9BX84).
T15 construct: purchased DiscoveRx (KinomeScan)
Described as above. The settings on record: kinase TRPM6; 10 µM; read-out: score (%). It counts as binding.

The target in assay [16] is T16, KinomeScan kinase panel (Homo sapiens, UniProt Q5S007).
T16 construct: purchased DiscoveRx (KinomeScan)
The assay is described as above. The conditions noted are these: LRRK2, 10 µM; read-out: score (%). It is filed as binding.

Assay [17] concerns the target T17, KinomeScan kinase panel (Plasmodium falciparum, UniProt P62344).
T17 construct: purchased DiscoveRx (KinomeScan)
The description is as above. The conditions noted are these: PFCDPK1(P.falciparum), 10 µM; read-out: score (%). It is filed as binding.

For assay [18], the target named is T18, KinomeScan kinase panel (Homo sapiens, UniProt O14733).
T18 construct: purchased DiscoveRx (KinomeScan)
Described as above. The settings on record: MKK7, 10 µM. It is filed as binding.

Assay [19] addresses T19, KinomeScan kinase panel (Mycobacterium tuberculosis, UniProt P9WI81).
T19 construct: purchased DiscoveRx (KinomeScan)
Described as above. It is filed as binding. The settings on record: PKNB(M.tuberculosis), 10 µM; read-out: score (%).

The target of assay [20] is T20, KinomeScan kinase panel (Homo sapiens, UniProt Q13163).
T20 construct: purchased DiscoveRx (KinomeScan)
The assay is described as above. It counts as binding. The conditions noted are these: MEK5, 10 µM; read-out: score (%).

In assay [21] the target is T21, KinomeScan kinase panel (Homo sapiens, UniProt P42345).
T21 construct: purchased DiscoveRx (KinomeScan)
The description is as above. It is filed as binding. The conditions noted are these: MTOR, 10 µM; read-out: score (%).

Assay [22] addresses T22, KinomeScan kinase panel (Homo sapiens, UniProt P11802).
T22 construct: purchased DiscoveRx (KinomeScan)
The assay is described as above. It counts as binding. The conditions noted are these: read-out: score (%).

Assay [23] has as its target T23, KinomeScan kinase panel (Homo sapiens, UniProt P23443).
T23 construct: purchased DiscoveRx (KinomeScan)
The assay is described as above. It counts as binding. The settings on record: kinase S6K1; 10 µM; read-out: score (%).

In assay [24] the target is T24, KinomeScan kinase panel (Homo sapiens, UniProt P42336, I800L).
T24 construct: purchased DiscoveRx (KinomeScan)
Described as above. It counts as binding. The settings on record: PIK3CA(I800L), 10 µM; read-out: score (%).

The target of assay [25] is T25, KinomeScan kinase panel (Homo sapiens, UniProt Q86Y07).
T25 construct: purchased DiscoveRx (KinomeScan)
The assay is described as above. It is filed as binding. The conditions noted are these: kinase VRK2; 10 µM; read-out: score (%).

Assay [26] addresses T26, KinomeScan kinase panel (Homo sapiens, UniProt P51956).
T26 construct: purchased DiscoveRx (KinomeScan)
The description is as above. It is filed as binding. The settings on record: NEK3, 10 µM; read-out: score (%).

The target in assay [27] is T27, KinomeScan kinase panel (Homo sapiens, UniProt Q8TBX8).
T27 construct: purchased DiscoveRx (KinomeScan)
Described as above. It is filed as binding. The conditions noted are these: PIP5K2C, 10 µM; read-out: score (%).

Assay [28] addresses T28, KinomeScan kinase panel (Homo sapiens, UniProt Q8NG66).
T28 construct: purchased DiscoveRx (KinomeScan)
The description is as above. It counts as binding. The settings on record: NEK11, 10 µM; read-out: score (%).

In assay [29] the target is T29, KinomeScan kinase panel (Homo sapiens, UniProt Q5S007, G2019S).
T29 construct: purchased DiscoveRx (KinomeScan)
The assay is described as above. It counts as binding. The settings on record: LRRK2(G2019S), 10 µM; read-out: score (%).

The target of assay [30] is T30, KinomeScan kinase panel (Homo sapiens, UniProt P48729).
T30 construct: purchased DiscoveRx (KinomeScan)
Described as above. It is filed as binding. The settings on record: CSNK1A1, 10 µM; read-out: score (%).

Assay [31] has as its target T31, KinomeScan kinase panel (Homo sapiens, UniProt Q8WU08).
T31 construct: purchased DiscoveRx (KinomeScan)
Described as above. It counts as binding. The conditions noted are these: kinase YANK1; 10 µM; read-out: score (%).

The target of assay [32] is T32, KinomeScan kinase panel (Homo sapiens, UniProt Q14004).
T32 construct: purchased DiscoveRx (KinomeScan)
The assay is described as above. It counts as binding. The conditions noted are these: CDC2L5, 10 µM.

Like-named read-outs stand apart in the source and are kept apart here.

T1 sequence (Q9NYY3 whole entry): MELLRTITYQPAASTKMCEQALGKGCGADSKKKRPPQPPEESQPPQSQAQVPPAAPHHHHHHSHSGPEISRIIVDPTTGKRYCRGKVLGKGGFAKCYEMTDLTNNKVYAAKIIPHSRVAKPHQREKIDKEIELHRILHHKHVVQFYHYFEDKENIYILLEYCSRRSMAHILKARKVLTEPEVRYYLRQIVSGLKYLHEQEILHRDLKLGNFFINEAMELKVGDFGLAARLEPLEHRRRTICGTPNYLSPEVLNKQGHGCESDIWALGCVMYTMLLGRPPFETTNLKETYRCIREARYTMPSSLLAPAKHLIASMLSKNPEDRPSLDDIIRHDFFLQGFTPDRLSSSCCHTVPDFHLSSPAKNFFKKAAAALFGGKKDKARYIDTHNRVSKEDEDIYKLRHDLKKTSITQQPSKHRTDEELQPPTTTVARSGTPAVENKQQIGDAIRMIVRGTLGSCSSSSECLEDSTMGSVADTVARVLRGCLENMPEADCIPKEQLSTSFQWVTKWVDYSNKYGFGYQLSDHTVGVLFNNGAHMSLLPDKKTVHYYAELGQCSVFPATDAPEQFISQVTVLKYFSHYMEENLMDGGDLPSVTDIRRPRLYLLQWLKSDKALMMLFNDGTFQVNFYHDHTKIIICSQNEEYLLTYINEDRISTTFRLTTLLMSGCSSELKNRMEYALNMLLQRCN
T3 sequence (P42336 whole entry H1047L): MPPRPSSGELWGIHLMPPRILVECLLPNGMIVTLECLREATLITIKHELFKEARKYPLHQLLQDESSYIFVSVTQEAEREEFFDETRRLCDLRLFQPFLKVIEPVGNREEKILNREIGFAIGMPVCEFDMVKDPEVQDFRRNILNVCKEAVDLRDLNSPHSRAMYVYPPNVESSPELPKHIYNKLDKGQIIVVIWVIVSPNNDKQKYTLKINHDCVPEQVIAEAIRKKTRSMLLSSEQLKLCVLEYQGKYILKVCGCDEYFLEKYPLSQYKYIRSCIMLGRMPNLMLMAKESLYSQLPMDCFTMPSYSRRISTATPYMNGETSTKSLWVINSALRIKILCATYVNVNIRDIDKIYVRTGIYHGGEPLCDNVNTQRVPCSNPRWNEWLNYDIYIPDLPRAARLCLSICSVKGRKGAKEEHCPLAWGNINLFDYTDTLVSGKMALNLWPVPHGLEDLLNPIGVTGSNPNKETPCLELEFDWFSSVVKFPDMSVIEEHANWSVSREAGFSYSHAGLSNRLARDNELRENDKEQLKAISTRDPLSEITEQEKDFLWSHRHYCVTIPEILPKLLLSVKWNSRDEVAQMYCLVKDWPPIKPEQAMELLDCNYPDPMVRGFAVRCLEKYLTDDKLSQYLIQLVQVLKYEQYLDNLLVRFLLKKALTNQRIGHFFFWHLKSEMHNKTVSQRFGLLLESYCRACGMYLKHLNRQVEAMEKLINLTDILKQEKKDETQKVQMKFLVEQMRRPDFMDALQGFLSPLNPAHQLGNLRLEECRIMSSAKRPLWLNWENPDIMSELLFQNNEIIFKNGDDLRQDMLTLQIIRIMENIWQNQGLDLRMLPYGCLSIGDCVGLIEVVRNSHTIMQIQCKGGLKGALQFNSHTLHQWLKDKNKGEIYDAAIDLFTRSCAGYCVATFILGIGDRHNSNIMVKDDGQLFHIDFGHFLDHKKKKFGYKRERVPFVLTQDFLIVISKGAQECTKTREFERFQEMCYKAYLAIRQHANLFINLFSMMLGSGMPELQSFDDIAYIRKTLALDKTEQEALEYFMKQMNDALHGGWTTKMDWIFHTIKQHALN
T22 sequence (P11802 whole entry): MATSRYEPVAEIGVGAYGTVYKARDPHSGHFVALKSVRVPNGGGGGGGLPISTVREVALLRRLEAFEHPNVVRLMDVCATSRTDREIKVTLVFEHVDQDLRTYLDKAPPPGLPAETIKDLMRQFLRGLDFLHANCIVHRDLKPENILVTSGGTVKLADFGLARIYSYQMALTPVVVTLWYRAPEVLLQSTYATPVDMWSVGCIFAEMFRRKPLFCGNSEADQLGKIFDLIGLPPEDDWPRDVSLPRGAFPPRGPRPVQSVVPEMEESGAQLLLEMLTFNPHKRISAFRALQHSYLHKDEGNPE
T4 sequence (Q9UBF8 whole entry): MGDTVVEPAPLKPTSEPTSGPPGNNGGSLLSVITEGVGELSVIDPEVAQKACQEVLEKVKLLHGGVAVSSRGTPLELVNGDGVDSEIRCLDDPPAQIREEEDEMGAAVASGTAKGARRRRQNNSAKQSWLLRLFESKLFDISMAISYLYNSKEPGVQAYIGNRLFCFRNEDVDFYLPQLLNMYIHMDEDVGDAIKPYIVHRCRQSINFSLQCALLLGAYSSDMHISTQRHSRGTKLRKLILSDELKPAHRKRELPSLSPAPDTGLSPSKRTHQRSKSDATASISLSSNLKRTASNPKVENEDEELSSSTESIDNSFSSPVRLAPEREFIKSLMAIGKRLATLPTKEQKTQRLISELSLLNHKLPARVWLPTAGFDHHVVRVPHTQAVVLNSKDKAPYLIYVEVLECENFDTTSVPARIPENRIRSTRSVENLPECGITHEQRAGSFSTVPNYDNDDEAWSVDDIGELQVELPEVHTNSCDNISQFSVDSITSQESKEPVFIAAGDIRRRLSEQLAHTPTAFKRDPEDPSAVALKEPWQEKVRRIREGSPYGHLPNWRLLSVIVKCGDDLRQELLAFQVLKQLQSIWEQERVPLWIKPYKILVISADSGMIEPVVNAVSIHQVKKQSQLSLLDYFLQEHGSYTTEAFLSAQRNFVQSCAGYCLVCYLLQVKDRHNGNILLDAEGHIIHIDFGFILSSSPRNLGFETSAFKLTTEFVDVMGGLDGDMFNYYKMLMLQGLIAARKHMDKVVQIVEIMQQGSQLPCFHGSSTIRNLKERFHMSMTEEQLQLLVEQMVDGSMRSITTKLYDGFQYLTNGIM
T2 sequence (Q15208 whole entry): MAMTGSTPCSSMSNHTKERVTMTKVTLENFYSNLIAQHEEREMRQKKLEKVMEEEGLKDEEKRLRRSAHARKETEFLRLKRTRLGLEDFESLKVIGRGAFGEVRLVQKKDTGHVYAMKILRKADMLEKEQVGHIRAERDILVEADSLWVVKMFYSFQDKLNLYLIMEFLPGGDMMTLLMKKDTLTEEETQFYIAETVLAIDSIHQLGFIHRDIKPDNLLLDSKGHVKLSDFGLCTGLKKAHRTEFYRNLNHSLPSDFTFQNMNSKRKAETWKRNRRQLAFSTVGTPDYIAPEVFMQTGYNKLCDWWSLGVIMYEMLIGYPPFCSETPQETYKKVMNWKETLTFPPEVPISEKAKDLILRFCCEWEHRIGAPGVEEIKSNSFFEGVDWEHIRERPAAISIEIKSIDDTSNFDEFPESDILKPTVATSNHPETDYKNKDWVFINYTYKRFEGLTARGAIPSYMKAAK
T5 sequence (P42336 whole entry M1043I): as the sequence (P42336 whole entry H1047L) above, with M1043I, L1047H counted along it
T31 sequence (Q8WU08 whole entry): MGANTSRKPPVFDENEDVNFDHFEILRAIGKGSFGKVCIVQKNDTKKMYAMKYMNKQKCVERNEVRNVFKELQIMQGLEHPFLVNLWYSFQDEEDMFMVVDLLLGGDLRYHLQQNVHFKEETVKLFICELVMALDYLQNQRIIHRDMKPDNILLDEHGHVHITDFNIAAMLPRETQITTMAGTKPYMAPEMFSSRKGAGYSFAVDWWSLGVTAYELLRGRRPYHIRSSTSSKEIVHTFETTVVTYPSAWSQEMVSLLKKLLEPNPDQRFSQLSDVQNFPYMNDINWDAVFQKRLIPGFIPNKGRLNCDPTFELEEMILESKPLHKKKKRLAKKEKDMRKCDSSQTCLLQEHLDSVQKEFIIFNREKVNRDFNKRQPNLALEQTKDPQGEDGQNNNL
T8 sequence (P41743 whole entry): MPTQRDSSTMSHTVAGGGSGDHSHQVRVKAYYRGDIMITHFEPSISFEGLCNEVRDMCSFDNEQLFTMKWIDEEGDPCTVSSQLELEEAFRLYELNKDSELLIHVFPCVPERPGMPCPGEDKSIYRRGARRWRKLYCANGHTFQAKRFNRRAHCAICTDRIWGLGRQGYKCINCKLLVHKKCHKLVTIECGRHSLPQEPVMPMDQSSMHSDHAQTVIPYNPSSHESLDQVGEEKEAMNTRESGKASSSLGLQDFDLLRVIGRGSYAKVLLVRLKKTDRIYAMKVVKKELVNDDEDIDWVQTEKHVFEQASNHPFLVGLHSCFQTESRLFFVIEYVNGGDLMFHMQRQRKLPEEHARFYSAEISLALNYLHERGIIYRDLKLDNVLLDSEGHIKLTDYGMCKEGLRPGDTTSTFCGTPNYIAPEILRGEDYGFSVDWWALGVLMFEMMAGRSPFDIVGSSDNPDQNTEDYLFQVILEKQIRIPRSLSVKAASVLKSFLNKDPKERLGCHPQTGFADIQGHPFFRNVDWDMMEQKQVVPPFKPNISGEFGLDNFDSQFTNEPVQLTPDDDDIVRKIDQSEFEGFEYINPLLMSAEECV
T19 sequence (P9WI81 whole entry): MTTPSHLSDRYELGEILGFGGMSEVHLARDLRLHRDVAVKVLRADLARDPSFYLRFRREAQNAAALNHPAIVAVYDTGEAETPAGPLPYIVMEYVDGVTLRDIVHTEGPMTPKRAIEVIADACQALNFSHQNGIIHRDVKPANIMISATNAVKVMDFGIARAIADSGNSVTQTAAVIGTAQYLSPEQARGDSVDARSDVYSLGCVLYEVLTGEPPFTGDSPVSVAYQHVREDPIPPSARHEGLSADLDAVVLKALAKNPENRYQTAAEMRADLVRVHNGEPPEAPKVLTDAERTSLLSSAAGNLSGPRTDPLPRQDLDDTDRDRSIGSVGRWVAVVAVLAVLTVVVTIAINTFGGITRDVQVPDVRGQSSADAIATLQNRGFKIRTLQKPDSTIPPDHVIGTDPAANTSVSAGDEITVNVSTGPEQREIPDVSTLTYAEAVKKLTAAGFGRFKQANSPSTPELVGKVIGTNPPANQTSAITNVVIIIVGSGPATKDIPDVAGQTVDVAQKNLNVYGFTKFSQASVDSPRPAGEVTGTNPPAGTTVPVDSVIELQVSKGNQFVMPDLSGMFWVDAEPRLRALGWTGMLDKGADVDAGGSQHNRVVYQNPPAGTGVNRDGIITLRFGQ
T24 sequence (P42336 whole entry I800L): as the sequence (P42336 whole entry H1047L) above, with I800L, L1047H counted along it
Method for Ba/F3-RET/PTC3 cells: Fibroblasts were kept in medium supplemented with 5% fetal calf serum. Human cells were kept in 2% (TPC1), 5% (Nthy-ori-3-1), 20% (TT) or 10% (MZ-CRC-1) fetal calf serum. […] Cells were counted every 1–2 (fibroblasts) or 2–3 (human cell lines) days. Ba/F3 cells were kept in 10% fetal calf serum in 6-well dishes (200,000/well) and counted daily for 4 consecutive days, changing media every 2 days.
Differently from Ba/F3 NCOA4-RET, parental Ba/F3 were grown in the presence of IL3. Data are the mean ± SD of two experiments performed in triplicate.

On to `CCN1CCN(Cc2ccc(NC(=O)c3ccc(C)c(NC(=O)c4cncc(-c5cccs5)c4)c3)cc2C(F)(F)F)CC1` [ALW-II-41-27], for which, in the assay on Ba/F3-RET/PTC3 cells, the “effect on RET/PTC3-driven proliferation” value is reported as “blunted”. Further, the “score (%)” value on KinomeScan kinase panel [1] (PLK2, 10 µM) is reported as “nb (Hits values higher than 30% were considered negative (no binding: nb))”. Moreover, the remaining binding at 10 µM at KinomeScan kinase panel [2], on KinomeScan kinase panel [3], at KinomeScan kinase panel [4] and at KinomeScan kinase panel [5] was greater than 30% in each case.

Turning to `CCN1CCN(Cc2ccc(NC(=O)c3ccc(C)c(C#Cc4cccnc4)c3)cc2C(F)(F)F)CC1` [XMD15-44], the remaining binding at 10 µM on KinomeScan kinase panel [6] came to 34%; on KinomeScan kinase panel [7] it was 27%; on KinomeScan kinase panel [8], 42%; on KinomeScan kinase panel [9], 6.2%; on KinomeScan kinase panel [10], 6.4%; on KinomeScan kinase panel [11] it was 6%. The remaining binding at 10 µM on KinomeScan kinase panel [12] was 4.2%; on KinomeScan kinase panel [13], 27%; on KinomeScan kinase panel [15], 49%; at KinomeScan kinase panel [2], 4%; on KinomeScan kinase panel [3] it was 100%; on KinomeScan kinase panel [4], 100%. Further, the remaining binding at 10 µM is 3.4% on KinomeScan kinase panel [16]; 0.05% on KinomeScan kinase panel [17]; 87% on KinomeScan kinase panel [19]; 0.4% at KinomeScan kinase panel [20]; greater than 30% at KinomeScan kinase panel [21]; 21% on KinomeScan kinase panel [22] (CDK4-cyclinD1, 10 µM). Further, the remaining binding at 10 µM on KinomeScan kinase panel [22] (CDK4-cyclinD3, 10 µM) was greater than 30%; on KinomeScan kinase panel [23] it was 11%; on KinomeScan kinase panel [24] it was 72%; on KinomeScan kinase panel [25] it was 95%; on KinomeScan kinase panel [26], 53%; on KinomeScan kinase panel [27], 100%. Also, the remaining binding at 10 µM was 9.1% on KinomeScan kinase panel [28]; 83% on KinomeScan kinase panel [5]; 7.5% on KinomeScan kinase panel [29]; greater than 30% at KinomeScan kinase panel [30]; 81% on KinomeScan kinase panel [31]. Besides, the “score (%)” value on KinomeScan kinase panel [1] (kinase PLK2, 10 µM) is 100%; at KinomeScan kinase panel [14], “nb (Hits values higher than 30% were considered negative (no binding: nb))”; on KinomeScan kinase panel [18], 11%; at KinomeScan kinase panel [32] it was 6.5%.
